# In ChEMBL document CHEMBL1155042, “Carbamates with differential mechanism of inhibition toward acetylcholinesterase and butyrylcholinesterase” (J Med Chem, 2008):
# Active and inactive are the calls of the source. No cut-off for these calls is given here.
# What was measured:
# Cholinesterase [1] = biological target: T1, Cholinesterase (Homo sapiens, UniProt P06276); assay: Inhibition of human serum BchE by Ellman's assay
# [2] = biological target: Acetylcholinesterase (Homo sapiens) (UniProt P22303)
# Sequence of Acetylcholinesterase (Homo sapiens) (P22303 whole entry): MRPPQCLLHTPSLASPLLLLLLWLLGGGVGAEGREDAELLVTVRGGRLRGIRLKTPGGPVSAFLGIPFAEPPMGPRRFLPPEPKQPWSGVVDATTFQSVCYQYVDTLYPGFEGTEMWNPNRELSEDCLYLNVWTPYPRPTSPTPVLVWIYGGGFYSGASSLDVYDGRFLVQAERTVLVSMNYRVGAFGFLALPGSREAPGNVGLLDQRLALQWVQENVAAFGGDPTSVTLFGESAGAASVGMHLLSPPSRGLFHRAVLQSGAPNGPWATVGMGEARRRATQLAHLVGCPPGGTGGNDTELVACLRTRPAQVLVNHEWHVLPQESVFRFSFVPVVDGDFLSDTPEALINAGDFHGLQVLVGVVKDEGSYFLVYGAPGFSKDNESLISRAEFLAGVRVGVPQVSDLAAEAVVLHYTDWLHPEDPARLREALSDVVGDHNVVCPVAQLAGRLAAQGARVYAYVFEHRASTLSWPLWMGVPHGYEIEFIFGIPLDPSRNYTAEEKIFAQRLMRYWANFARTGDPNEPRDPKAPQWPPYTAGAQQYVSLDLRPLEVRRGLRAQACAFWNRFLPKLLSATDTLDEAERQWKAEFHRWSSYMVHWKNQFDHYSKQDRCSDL
# Description: Inhibition of human recombinant AchE by Ellman's assay
# Cholinesterase [3] = biological target: T1, Cholinesterase; assay: Inhibition of human serum BchE at 23.6 uM by Ellman's assay
# Cholinesterase [4] = biological target: T1, Cholinesterase; assay: Deactivation of human wild type recombinant BchE assessed as residual enzyme activity at 2.1 uM after 5 mins
# Cholinesterase [5] = biological target: T1, Cholinesterase; assay: Deactivation of human wild type recombinant BchE assessed as residual enzyme activity at 2.1 uM after 10 mins
# Cholinesterase [6] = biological target: T1, Cholinesterase; assay: Deactivation of human wild type recombinant BchE assessed as residual enzyme activity at 2.1 uM after 15 mins
# Cholinesterase [7] = biological target: T1, Cholinesterase; assay: Deactivation of human BchE D70G mutant assessed as residual enzyme activity at 2.1 uM after 5 mins
# Cholinesterase [8] = biological target: T1, Cholinesterase; assay: Deactivation of human BchE D70G mutant assessed as residual enzyme activity at 2.1 uM after 10 mins
# Cholinesterase [9] = biological target: T1, Cholinesterase; assay: Deactivation of human BchE D70G mutant assessed as residual enzyme activity at 2.1 uM after 15 mins
# Cholinesterase [10] = biological target: T1, Cholinesterase; assay: Deactivation of human BchE A539T mutant assessed as residual enzyme activity at 2.1 uM after 5 mins
# Cholinesterase [11] = biological target: T1, Cholinesterase; assay: Deactivation of human BchE A539T mutant assessed as residual enzyme activity at 2.1 uM after 10 mins
# Cholinesterase [12] = biological target: T1, Cholinesterase; assay: Deactivation of human BchE A539T mutant assessed as residual enzyme activity at 2.1 uM after 15 mins
# Cholinesterase [13] = biological target: T1, Cholinesterase; assay: Deactivation of human BchE Y332A mutant assessed as residual enzyme activity at 2.1 uM after 5 mins
# Cholinesterase [14] = biological target: T1, Cholinesterase; assay: Deactivation of human BchE Y332A mutant assessed as residual enzyme activity at 2.1 uM after 10 mins
# Cholinesterase [15] = biological target: T1, Cholinesterase; assay: Deactivation of human BchE Y332A mutant assessed as residual enzyme activity at 2.1 uM after 15 mins
# Cholinesterase [16] = biological target: T1, Cholinesterase; assay: Deactivation of human BchE A328Y mutant assessed as residual enzyme activity at 2.1 uM after 5 mins
# Cholinesterase [17] = biological target: T1, Cholinesterase; assay: Deactivation of human BchE A328Y mutant assessed as residual enzyme activity at 2.1 uM after 10 mins
# Cholinesterase [18] = biological target: T1, Cholinesterase; assay: Deactivation of human BchE A328Y mutant assessed as residual enzyme activity at 2.1 uM after 15 mins
# Cholinesterase [19] = biological target: T1, Cholinesterase; assay: Deactivation of human BchE A328F mutant assessed as residual enzyme activity at 2.1 uM after 5 mins
# Cholinesterase [20] = biological target: T1, Cholinesterase; assay: Deactivation of human BchE A328F mutant assessed as residual enzyme activity at 2.1 uM after 10 mins
# Cholinesterase [21] = biological target: T1, Cholinesterase; assay: Deactivation of human BchE A328F mutant assessed as residual enzyme activity at 2.1 uM after 15 mins
# Cholinesterase [22] = biological target: T1, Cholinesterase; assay: Deactivation of human BchE A328W mutant assessed as residual enzyme activity at 2.1 uM after 5 mins
# Cholinesterase [23] = biological target: T1, Cholinesterase; assay: Deactivation of human BchE A328W mutant assessed as residual enzyme activity at 2.1 uM after 10 mins
# Cholinesterase [24] = biological target: T1, Cholinesterase; assay: Deactivation of human BchE A328W mutant assessed as residual enzyme activity at 2.1 uM after 15 mins
# Cholinesterase [25] = biological target: T1, Cholinesterase; assay: Deactivation of human BchE F329S mutant assessed as residual enzyme activity at 2.1 uM after 5 mins
# Cholinesterase [26] = biological target: T1, Cholinesterase; assay: Deactivation of human BchE F329S mutant assessed as residual enzyme activity at 2.1 uM after 10 mins
# Cholinesterase [27] = biological target: T1, Cholinesterase; assay: Deactivation of human BchE F329S mutant assessed as residual enzyme activity at 2.1 uM after 15 mins
# Cholinesterase [28] = biological target: T1, Cholinesterase; assay: Deactivation of human BchE F329A mutant assessed as residual enzyme activity at 2.1 uM after 5 mins
# Cholinesterase [29] = biological target: T1, Cholinesterase; assay: Deactivation of human BchE F329A mutant assessed as residual enzyme activity at 2.1 uM after 10 mins
# Cholinesterase [30] = biological target: T1, Cholinesterase; assay: Deactivation of human BchE F329A mutant assessed as residual enzyme activity at 2.1 uM after 15 mins
# Cholinesterase [31] = biological target: T1, Cholinesterase; assay: Inhibition of human serum BchE at 73.3 uM by Ellman's assay
# T1 sequence (P06276 whole entry): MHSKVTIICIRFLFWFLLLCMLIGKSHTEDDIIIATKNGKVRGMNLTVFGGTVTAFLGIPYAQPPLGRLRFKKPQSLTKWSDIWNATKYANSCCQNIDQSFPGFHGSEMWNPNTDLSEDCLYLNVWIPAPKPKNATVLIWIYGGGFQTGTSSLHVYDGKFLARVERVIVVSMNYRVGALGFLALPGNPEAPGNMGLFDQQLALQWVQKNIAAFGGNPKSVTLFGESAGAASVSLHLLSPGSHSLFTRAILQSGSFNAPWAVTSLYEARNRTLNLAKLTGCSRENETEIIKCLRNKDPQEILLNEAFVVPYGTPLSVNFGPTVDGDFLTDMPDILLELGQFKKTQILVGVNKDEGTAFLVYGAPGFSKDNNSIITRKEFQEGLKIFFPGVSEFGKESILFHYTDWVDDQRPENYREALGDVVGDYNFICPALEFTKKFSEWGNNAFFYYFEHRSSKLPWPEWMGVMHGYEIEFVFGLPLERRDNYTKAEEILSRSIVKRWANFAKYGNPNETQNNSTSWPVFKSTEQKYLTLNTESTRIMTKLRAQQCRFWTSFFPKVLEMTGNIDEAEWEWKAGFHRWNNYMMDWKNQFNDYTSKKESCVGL
compound,measurement,setting,value
CC(C)(C)c1ccccc1OC(=O)N1c2ccccc2Sc2ccccc21,Ki,Cholinesterase [1],120 nM
same,Ka,[2],0.011 ×10³ /M/min
COc1cccc(OC(=O)N2c3ccccc3Sc3ccccc32)c1,Ki,Cholinesterase [1],710 nM
same,Ka,[2],89.4 ×10³ /M/min
Cc1ccccc1OC(=O)N1c2ccccc2Sc2ccccc21,Ki,Cholinesterase [1],390 nM
same,Ka,[2],547 ×10³ /M/min
O=C(Oc1ccc(-c2ccccc2)cc1)N1c2ccccc2Sc2ccccc21,Activity,Cholinesterase [3],inactive
same,Activity,Cholinesterase [4],100%
same,Activity,Cholinesterase [5],100%
same,Activity,Cholinesterase [6],100%
same,Activity,Cholinesterase [7],99.5%
same,Activity,Cholinesterase [8],90%
same,Activity,Cholinesterase [9],76%
same,Activity,Cholinesterase [10],99%
same,Activity,Cholinesterase [11],94%
same,Activity,Cholinesterase [12],93%
same,Activity,Cholinesterase [13],58%
same,Activity,Cholinesterase [14],87%
same,Activity,Cholinesterase [15],85%
same,Activity,Cholinesterase [16],85%
same,Activity,Cholinesterase [17],67%
same,Activity,Cholinesterase [18],63%
same,Activity,Cholinesterase [19],88%
same,Activity,Cholinesterase [20],75%
same,Activity,Cholinesterase [21],59%
same,Activity,Cholinesterase [22],74%
same,Activity,Cholinesterase [23],57%
same,Activity,Cholinesterase [24],35%
same,Activity,Cholinesterase [25],51%
same,Activity,Cholinesterase [26],15%
same,Activity,Cholinesterase [27],11%
same,Activity,Cholinesterase [28],46%
same,Activity,Cholinesterase [29],26%
same,Activity,Cholinesterase [30],12%
same,Ka,[2],910 ×10³ /M/min
COc1ccccc1OC(=O)N1c2ccccc2Sc2ccccc21,Ki,Cholinesterase [1],340 nM
same,Ka,[2],5.99 ×10³ /M/min
CCN(CC)CCOC(=O)N1c2ccccc2Sc2ccccc21,Ki,Cholinesterase [1],610 nM
same,Ka,[2],0.24 ×10³ /M/min
O=C(Oc1ccccc1Cl)N1c2ccccc2Sc2ccccc21,Ki,Cholinesterase [1],45400 nM
same,Ka,[2],18.7 ×10³ /M/min
COC(=O)N1c2ccccc2Sc2ccccc21,Ki,Cholinesterase [1],10200 nM
same,Ka,[2],0.426 ×10³ /M/min
O=C(Oc1ccccc1)N1c2ccccc2Sc2ccccc21,Ki,Cholinesterase [1],570 nM
same,Ka,[2],46 ×10³ /M/min
O=C(OC1CCCC1)N1c2ccccc2Sc2ccccc21,Ki,Cholinesterase [1],3190 nM
same,Ka,[2],0.492 ×10³ /M/min
COc1ccc(OC(=O)N2c3ccccc3Sc3ccccc32)cc1,Ki,Cholinesterase [1],2260 nM
same,Ka,[2],1.42 ×10³ /M/min
O=C(Oc1cccc2ccccc12)N1c2ccccc2Sc2ccccc21,Ki,Cholinesterase [1],36 nM
same,Ka,[2],1650 ×10³ /M/min
O=C(Oc1ccc(Cl)cc1)N1c2ccccc2Sc2ccccc21,Ki,Cholinesterase [1],10500 nM
same,Ka,[2],7.25 ×10³ /M/min
CC(C)(C)OC(=O)N1c2ccccc2Sc2ccccc21,Ki,Cholinesterase [1],4300 nM
same,Ka,[2],0.219 ×10³ /M/min
O=C(OCCN1CCOCC1)N1c2ccccc2Sc2ccccc21,Ki,Cholinesterase [1],2400 nM
same,Ka,[2],0.12 ×10³ /M/min
O=C(Oc1cccc(Cl)c1)N1c2ccccc2Sc2ccccc21,Ki,Cholinesterase [1],570 nM
same,Ka,[2],3.21 ×10³ /M/min
CN(C)c1cccc(OC(=O)N2c3ccccc3Sc3ccccc32)c1,Ki,Cholinesterase [1],1910 nM
same,Ka,[2],19200 ×10³ /M/min
Cc1cccc(OC(=O)N2c3ccccc3Sc3ccccc32)c1,Ki,Cholinesterase [1],1690 nM
same,Ka,[2],7.49 ×10³ /M/min
CC(C)(C)c1ccc(OC(=O)N2c3ccccc3Sc3ccccc32)cc1,Activity,Cholinesterase [31],inactive
same,Ka,[2],0.63 ×10³ /M/min
CN(C)CCOC(=O)N1c2ccccc2Sc2ccccc21,Ki,Cholinesterase [1],2450 nM
same,Ka,[2],0.546 ×10³ /M/min
CCN(CC)CCCOC(=O)N1c2ccccc2Sc2ccccc21,Ki,Cholinesterase [1],740 nM
same,Ka,[2],0.21 ×10³ /M/min
CCCOC(=O)N1c2ccccc2Sc2ccccc21,Ki,Cholinesterase [1],260000 nM
same,Ka,[2],0.219 ×10³ /M/min
CC(C)OC(=O)N1c2ccccc2Sc2ccccc21,Ki,Cholinesterase [1],18100 nM
same,Ka,[2],1.8 ×10³ /M/min
CCCCOC(=O)N1c2ccccc2Sc2ccccc21,Ki,Cholinesterase [1],13400 nM
same,Ka,[2],0.135 ×10³ /M/min
CCOC(=O)N1c2ccccc2Sc2ccccc21,Ki,Cholinesterase [1],23400 nM
same,Ka,[2],0.193 ×10³ /M/min
O=C(Oc1ccc2ccccc2c1)N1c2ccccc2Sc2ccccc21,Ki,Cholinesterase [1],120 nM
same,Ka,[2],11.2 ×10³ /M/min
O=C(OCCN1CCCC1)N1c2ccccc2Sc2ccccc21,Ki,Cholinesterase [1],650 nM
same,Ka,[2],46 ×10³ /M/min
Cc1ccc(OC(=O)N2c3ccccc3Sc3ccccc32)cc1,Ki,Cholinesterase [1],2850 nM
same,Ka,[2],92.6 ×10³ /M/min
O=C(OCCN1CCCCC1)N1c2ccccc2Sc2ccccc21,Ki,Cholinesterase [1],3200 nM
same,Ka,[2],3 ×10³ /M/min
